The values below come from patent US20090023813A1, “Diphenyl Urea Derivatives” (Arpida AG, priority 2005, published 2009).

Structures are written as SMILES. Values after ≈ are worked out from the molar mass of the structure shown. Read-outs that look alike come from different tables or passages of the source.

Format in all cases: cell-based
The test system of one assay is S. aureus MRSA 39. As to the kind of experiment: Antimicrobial susceptibility testing (CLSI broth dilution MIC). The following applies: for MIC: Staphylococcus aureus, MRSA, representative pathogens for nasal colonization, read-out: Minimum Inhibitory Concentration (MIC) S. aureus MRSA 39. As to the method: (§1) Antimicrobial susceptibility testing was performed in accordance with the Clinical and Laboratory Standards Institute (CLSI).
(§2) Clinical and Laboratory Standards Institute (CLSI; formerly NCCLS): Methods for Dilution Antimicrobial Susceptibility Tests for Bacteria That Grow Aerobically; Approved Standard—Seventh Edition (2006). Clinical and Laboratory Standards Institute document M7-A7.
Background: Broth dilution looks for growth in wells or tubes with falling amounts of substance.

A further assay concerns E. faecalis VanB E80-8. The assay is described as above. The conditions noted are these: for MIC: Enterococcus faecalis, VANBE808, representative pathogens for skin infections, read-out: Minimum Inhibitory Concentration (MIC) E. faecalis VanB E80-8; for Minimum Inhibitory Concentration (MIC) E. faecalis VanB E80-8: representative pathogens for gastro-intestinal infections. The procedure:
as §1, §2

The subject of a further assay is S. epidermidis MRSE 70. Described as above. The conditions noted are these: for MIC: Staphylococcus epidermidis, MRSE, representative pathogens for nasal colonization, read-out: Minimum Inhibitory Concentration (MIC) S. epidermidis MRSE 70. The procedure: as §1, §2
The subject of another assay is S. aureus MRSA 101. The description is as above. The following applies: Staphylococcus aureus. As to the method: as §1, §2
The test system of another assay is S. aureus ATCC 25923. Described as above. The conditions noted are these: Staphylococcus aureus, ATCC25923. As to the method:
as §1, §2

The test system of another assay is B. distasonis 5770. As to the kind of experiment: Antimicrobial susceptibility testing of anaerobic bacteria (microbroth dilution, Wilkins Chalgren Broth). The following applies: Parabacteroides distasonis, representative pathogens for gastro-intestinal infections, read-out: Minimum Inhibitory Concentration (MIC) B. distasonis 5770. As to the method: (§3) Antimicrobial susceptibility testing was performed in accordance with the Clinical and Laboratory Standards Institute (CLSI). Streptococci (S. pneumoniae, S. pyogenes, S. viridans) were tested following the CLSI methodology with the exception that Todd Hewitt Broth without blood was used. Anaerobic bacteria (P. acnes, B. distasonis) were tested following CLSI (formerly NCCLS) guidelines except for using microbroth dilutions in Wilkins Chalgren Broth. National Committee for Clinical Laboratory Standards (NCCLS). Methods for Anti-microbial Susceptibility Testing of Anaerobic Bacteria; Approved Standard—Sixth Edition (2004). NCCLS document M11-A6.

In a further assay the test system is P. acnes 6390. The assay is described as above. The following applies: Cutibacterium acnes, representative pathogens for skin infections, read-out: Minimum Inhibitory Concentration (MIC) P. acnes 6390. As to the method: as §3
For another assay, the system named is S. viridans UHC7. Nature of the assay: Antimicrobial susceptibility testing of streptococci (CLSI, Todd Hewitt Broth without blood). The conditions noted are these: Streptococcus viridans, representative pathogens for dental infections, read-out: Minimum Inhibitory Concentration (MIC) S. viridans UHC7. As to the method:
as §3, with “(CLSI). Clinical and Laboratory Standards Institute (CLSI; formerly NCCLS): Methods for Dilution Antimicrobial Susceptibility Tests for Bacteria That Grow Aerobically; Approved Standard—Seventh Edition (2006). Clinical and Laboratory Standards Institute document M7-A7.” for “(CLSI).”

The subject of another assay is S. pneumoniae 1/1. Described as above. The following applies: Streptococcus pneumoniae, representative pathogens for ocular infections, read-out: Minimum Inhibitory Concentration (MIC) S. pneumoniae 1/1. The procedure:
as §3, with “(CLSI). Clinical and Laboratory Standards Institute (CLSI; formerly NCCLS): Methods for Dilution Antimicrobial Susceptibility Tests for Bacteria That Grow Aerobically; Approved Standard—Seventh Edition (2006). Clinical and Laboratory Standards Institute document M7-A7.” for “(CLSI).”

For a further assay, the system named is S. pyogenes GAS-1. The assay is described as above. The following applies: for MIC: Streptococcus pyogenes, GAS1, representative pathogens for ocular infections, read-out: Minimum Inhibitory Concentration (MIC) S. pyogenes GAS-1; for Minimum Inhibitory Concentration (MIC) S. pyogenes GAS-1: representative pathogens for skin infections. The procedure: as §3, with “(CLSI). Clinical and Laboratory Standards Institute (CLSI; formerly NCCLS): Methods for Dilution Antimicrobial Susceptibility Tests for Bacteria That Grow Aerobically; Approved Standard—Seventh Edition (2006). Clinical and Laboratory Standards Institute document M7-A7.” for “(CLSI).”

Where [1] appears, read: representative pathogens for ocular infections.
[2] abbreviates: representative pathogens for skin infections.
Setting [3] is: representative pathogens for nasal colonization, read-out: Minimum Inhibitory Concentration (MIC) S. aureus MRSA 101.
[4] abbreviates: representative pathogens for ocular infections, read-out: Minimum Inhibitory Concentration (MIC) S. aureus MRSA101.
The mark [5] stands for this setting: representative pathogens for nasal colonization, read-out: Minimum Inhibitory Concentration (MIC) S. aureus ATCC 25923.
The mark [6] stands for this setting: representative pathogens for ocular infections, read-out: Minimum Inhibitory Concentration (MIC) S. aureus 25923.

Consider `O=C(Nc1cc(Br)cc(C(F)(F)F)c1)Nc1ccc(Cl)c(C(F)(F)F)c1` [Example 1, 1-(3-Bromo-5-trifluoromethyl-phenyl)-3-(4-chloro-3-trifluoromethyl-phenyl)-urea], for which the MIC came to 0.25 µg/mL (≈ 0.542 µM) with S. aureus MRSA 39; 2 µg/mL (≈ 4.33 µM) with E. faecalis VanB E80-8; 0.25 µg/mL (≈ 0.542 µM) in the assay with S. epidermidis MRSE 70; 0.125 µg/mL (≈ 0.271 µM) with S. aureus MRSA 101 (setting [3]); 0.125 µg/mL (≈ 0.271 µM) in the assay with S. aureus MRSA 101 (setting [4]); 0.5 µg/mL (≈ 1.08 µM) with S. aureus ATCC 25923 (setting [5]). Besides, the MIC was 0.5 µg/mL (≈ 1.08 µM) with S. aureus ATCC 25923 (setting [6]); 0.5 µg/mL (≈ 1.08 µM) in the assay on B. distasonis 5770; at most 0.03 µg/mL in the assay on P. acnes 6390; 0.5 µg/mL (≈ 1.08 µM) in the assay on S. viridans UHC7; 0.125 µg/mL (≈ 0.271 µM) in the assay with S. pneumoniae 1/1; 0.25 µg/mL (≈ 0.542 µM) in the assay with S. pyogenes GAS-1. For the same compound, the “Minimum Inhibitory Concentration (MIC) S. aureus MRSA 39” value in the assay on S. aureus MRSA 39 (setting [1]) and with S. aureus MRSA 39 (setting [2]) was 0.25 micrograms/ml throughout. In the assay on E. faecalis VanB E80-8, the “Minimum Inhibitory Concentration (MIC) E. faecalis VanB E80-8” value is given as 2 micrograms/ml. In addition, the “Minimum Inhibitory Concentration (MIC) S. epidermidis MRSE 70” value in the assay on S. epidermidis MRSE 70 (setting [1]) and in the assay on S. epidermidis MRSE 70 (setting [2]) was 0.25 micrograms/ml throughout. The “Minimum Inhibitory Concentration (MIC) S. pyogenes GAS-1” value with S. pyogenes GAS-1 came to 0.25 micrograms/ml.
With `O=C(Nc1cc(Cl)cc(C(F)(F)F)c1)Nc1ccc(Cl)c(C(F)(F)F)c1` [Example 2, 1-(3-Chloro-5-trifluoromethyl-phenyl)-3-(4-chloro-3-trifluoromethyl-phenyl)-urea], the MIC in the assay with S. aureus MRSA 39 worked out at 0.25 µg/mL (≈ 0.599 µM); with E. faecalis VanB E80-8, 1 µg/mL (≈ 2.4 µM); in the assay with S. epidermidis MRSE 70, 0.25 µg/mL (≈ 0.599 µM); with S. aureus MRSA 101 (setting [3]), 0.125 µg/mL (≈ 0.3 µM); in the assay with S. aureus MRSA 101 (setting [4]) it was 0.125 µg/mL (≈ 0.3 µM); in the assay with S. aureus ATCC 25923 (setting [5]), 0.25 µg/mL (≈ 0.599 µM). The MIC with S. aureus ATCC 25923 (setting [6]) was 0.25 µg/mL (≈ 0.599 µM); in the assay on B. distasonis 5770, 1 µg/mL (≈ 2.4 µM); in the assay with P. acnes 6390, at most 0.03 µg/mL; in the assay on S. viridans UHC7, 0.5 µg/mL (≈ 1.2 µM); in the assay on S. pneumoniae 1/1, 0.06 µg/mL (≈ 0.144 µM); in the assay on S. pyogenes GAS-1 it was 0.25 µg/mL (≈ 0.599 µM). Moreover, the “Minimum Inhibitory Concentration (MIC) S. aureus MRSA 39” value with S. aureus MRSA 39 (setting [1]) and with S. aureus MRSA 39 (setting [2]) was 0.25 micrograms/ml each time. Also, the “Minimum Inhibitory Concentration (MIC) E. faecalis VanB E80-8” value in the assay on E. faecalis VanB E80-8 is 1 micrograms/ml. Also, the “Minimum Inhibitory Concentration (MIC) S. epidermidis MRSE 70” value in the assay with S. epidermidis MRSE 70 (setting [1]) and in the assay on S. epidermidis MRSE 70 (setting [2]) was 0.25 micrograms/ml in each case. The “Minimum Inhibitory Concentration (MIC) S. pyogenes GAS-1” value in the assay on S. pyogenes GAS-1 stood at 0.25 micrograms/ml.
For the compound `FC(F)(F)c1cc(Br)cc(NC(=S)Nc2ccc(Cl)c(C(F)(F)F)c2)c1` [Example 3, 1-(3-Bromo-5-trifluoromethyl-phenyl)-3-(4-chloro-3-trifluoromethyl-phenyl)-thiourea], the MIC was 0.25 µg/mL (≈ 0.523 µM) in the assay on S. aureus MRSA 39; 1 µg/mL (≈ 2.09 µM) in the assay on E. faecalis VanB E80-8; 0.25 µg/mL (≈ 0.523 µM) in the assay with S. epidermidis MRSE 70; 0.5 µg/mL (≈ 1.05 µM) in the assay on S. aureus MRSA 101 (setting [3]); 0.5 µg/mL (≈ 1.05 µM) in the assay on S. aureus MRSA 101 (setting [4]); 0.125 µg/mL (≈ 0.262 µM) with S. aureus ATCC 25923 (setting [5]). In addition, the MIC is 0.125 µg/mL (≈ 0.262 µM) with S. aureus ATCC 25923 (setting [6]); 1 µg/mL (≈ 2.09 µM) in the assay with B. distasonis 5770; at most 0.03 µg/mL in the assay on P. acnes 6390; 1 µg/mL (≈ 2.09 µM) in the assay with S. viridans UHC7; 0.25 µg/mL (≈ 0.523 µM) in the assay with S. pneumoniae 1/1; 0.25 µg/mL (≈ 0.523 µM) in the assay on S. pyogenes GAS-1. The “Minimum Inhibitory Concentration (MIC) S. aureus MRSA 39” value with S. aureus MRSA 39 (setting [1]) and with S. aureus MRSA 39 (setting [2]) was 0.25 micrograms/ml throughout. The “Minimum Inhibitory Concentration (MIC) E. faecalis VanB E80-8” value in the assay with E. faecalis VanB E80-8 is on record as 1 micrograms/ml. Besides, the “Minimum Inhibitory Concentration (MIC) S. epidermidis MRSE 70” value in the assay with S. epidermidis MRSE 70 (setting [1]) and with S. epidermidis MRSE 70 (setting [2]) was 0.25 micrograms/ml in each case. In addition, the “Minimum Inhibitory Concentration (MIC) S. pyogenes GAS-1” value in the assay with S. pyogenes GAS-1 was determined as 0.25 micrograms/ml.
